These results are taken from patent publication US20230192617A1, “AZABICYCLIC(THIO)AMIDES AS FUNGICIDAL COMPOUNDS” (Bayer CropScience Aktiengesellschaft, priority 2020, published 2023).

Data set [1] is described as follows: Measurement of Log P values by HPLC on reversed phase columns (EEC directive 79/831 Annex V.A8). It is filed as physicochemical. The note with it: reversed phase HPLC column, method [a]: LC-UV, acidic range, 0.1% formic acid in water and acetonitrile as eluent. The protocol: A-1.1. Measurement of Log P Values
Measurement of Log P values as provided herein was performed according to EEC directive 79/831 Annex V.A8 by HPLC (High Performance Liquid Chromatography) on reversed phase columns with the following methods:
^[a] Log P value is determined by measurement of LC-UV, in an acidic range, with 0.1% formic acid in water and acetonitrile as eluent (linear gradient from 10% acetonitrile to 95% acetonitrile).
^[b] Log P value is determined by measurement of LC-UV, in a neutral range, with 0.001 molar ammonium acetate solution in water and acetonitrile as eluent (linear gradient from 10% acetonitrile to 95% acetonitrile).
^[c] Log P value is determined by measurement of LC-UV, in an acidic range, with 0.1% phosphoric acid and acetonitrile as eluent (linear gradient from 10% acetonitrile to 95% acetonitrile).
If more than one Log P value is available within the same method, all the values are given and separated by “+”. […]

Another data set relates to Pyrenophora teres. The experiment in a line: B-10. Pyrenophora teres in vitro cell test. In kind it is cell-based. The note with it: 144 h, 20 ppm of active ingredient, 6 days incubation, liquid culture, absorbance, read-out: efficacy (inhibition of fungal growth). The protocol: (§1) B-10. Pyrenophora teres In Vitro Cell Test [table] Fungicides were solubilized in DMSO and the solution used to prepare the required range of concentrations. The final concentration of DMSO used in the assay was ≤1%. A spore suspension of P. teres was prepared and diluted to the desired spore density. Fungicides were evaluated for their ability to inhibit spore germination and mycelium growth in liquid culture assay. The compounds were added in the desired concentration to the culture medium with spores. After 6 days incubation, fungi-toxicity of compounds was determined by spectrometric measurement of mycelium growth. Inhibition of fungal growth was determined by comparing the absorbance values in wells containing the fungicides with the absorbance in control wells without fungicides.

For data set [2], the system named is Botrytis cinerea. The experiment in a line: B-11. Botrytis cinerea in vitro cell test. It is filed as cell-based. To be noted: 144 h, 20 ppm of active ingredient, 6 days incubation, liquid culture, absorbance, read-out: efficacy (inhibition of fungal growth). The protocol: as §1, with “B-11. Botrytis cinerea” for “B-10. Pyrenophora teres”, “B. cinerea” for “P. teres”

For data set [3], the system named is Colletotrichum lindemuthianum. The experiment in a line: B-8. Colletotrichum lindemuthianum in vitro cell test. It is filed as cell-based. To be noted: 144 h, 20 ppm of active ingredient, 6 days incubation, liquid culture, absorbance, read-out: efficacy (inhibition of fungal growth). The protocol: as §1, with “B-8. Colletotrichum lindemuthianum In” for “B-10. Pyrenophora teres In”, “of C. lindemuthianum” for “of P. teres”, “inhibit spores” for “inhibit spore”

The test system of another data set is Alternaria brassicae. The experiment in a line: In vivo preventive test on Alternaria brassicae (leaf spot on radish or cabbage). To be noted: 500 ppm of active ingredient, preventive spray on radish or cabbage, evaluated 3 to 4 days after inoculation, read-out: efficacy. The protocol:
B-1. In Vivo Preventive Test on Alternaria brassicae (Leaf Spot on Radish or Cabbage) [table] The active ingredients were made soluble and homogenized in a mixture of Dimethyl sulfoxide/Acetone/Tween® 80 and then diluted in water to the desired concentration. The young plants of radish or cabbage were treated by spraying the active ingredient prepared as described above. Control plants were treated only with an aqueous solution of Acetone/Dimethyl sulfoxide/Tween® 80. After 24 hours, the plants were contaminated by spraying the leaves with an aqueous suspension of Alternaria brassicae spores. The contaminated radish or cabbage plants were incubated for 3 to 4 days at 20° C. and at 100% relative humidity.

Data set [4] relates to Botrytis cinerea. The experiment in a line: In vivo preventive test on Botrytis cinerea (grey mould). The note with it: 500 ppm of active ingredient, preventive spray on gherkin or cabbage, evaluated 4 to 5 days after inoculation, read-out: efficacy. On the procedure: B-2. In Vivo Preventive Test on Botrytis cinerea (Grey Mould) [table] The active ingredients were made soluble and homogenized in a mixture of Dimethyl sulfoxide/Acetone/Tween® 80 and then diluted in water to the desired concentration. The young plants of gherkin or cabbage were treated by spraying the active ingredient prepared as described above. Control plants were treated only with an aqueous solution of Acetone/Dimethyl sulfoxide/Tween® 80. After 24 hours, the plants were contaminated by spraying the leaves with an aqueous suspension of Botrytis cinerea spores. The contaminated gherkin plants were incubated for 4 to 5 days at 17° C. and at 90% relative humidity. The contaminated cabbage plants were incubated for 4 to 5 days at 20° C. and at 100% relative humidity.

Another data set concerns Alternaria alternata. The experiment in a line: Alternaria alternata in vitro cell test. In kind it is cell-based. To be noted: 120 h, 20 ppm of active ingredient, liquid culture, 5 days incubation, spectrometric measurement of mycelium growth, read-out: efficacy (inhibition of fungal growth). On the procedure: as §1, with “B-6. Alternaria alternata” for “B-10. Pyrenophora teres”, “A. alternata” for “P. teres”, “5” for “6”

`CC1(C)Cc2cc(Cl)c(F)cc2[C@@H](NC(=O)c2c(Oc3cccc(C(F)(F)F)c3)nnc3ccccc23)C1` (racemic) [I-197] yielded a chromatographic logP in data set [1] of 4.82. Besides, the inhibition at 20 ppm in the data set with Pyrenophora teres and in the data set on Botrytis cinerea [2] was 90 to 100% each time.
`Cc1ccc(C(F)(F)F)cc1Oc1nnc2ccccc2c1C(=O)NC[C@H](F)c1ccc(Cl)cc1Cl` (racemic) [I-183]: the chromatographic logP in data set [1] came to 4.74. In the data set on Pyrenophora teres, the inhibition at 20 ppm was in the range of 70 to 79%.
In turn, `N#Cc1ccc(CONC(=O)c2c(Oc3cccc(C(F)(F)F)c3)nnc3ccccc23)cc1` [I-088] returned a chromatographic logP in data set [1] of 3.07. In addition, the inhibition at 20 ppm (in data set [3]; in the data set on Botrytis cinerea [2]) was 90 to 100% each time.
As to `O=C(NCCc1cnc(C(F)(F)F)nc1)c1c(Oc2cccc(C(F)(F)F)c2)nnc2ccccc12` [I-195], in data set [1], the chromatographic logP was found to be 3.22. The inhibition at 20 ppm in the data set with Pyrenophora teres was 90 to 100%.
For `CC(C)CON(Cc1ccccc1)C(=O)c1c(Oc2cccc(C(F)(F)F)c2)nnc2ccccc12` [I-170], the chromatographic logP in data set [1] came to 4.86. Besides, the inhibition at 20 ppm in data set [3] fell in the range of 70 to 79%; in the data set on Botrytis cinerea [2], 90 to 100%.
On to `O=C(NCC(F)(F)c1ccc(Br)cc1Cl)c1c(Oc2cccc(Cl)c2)nnc2ccccc12` [I-013], for which the chromatographic logP in data set [1] came out at 4.46. Further, the pest or weed control at 500 ppm in the data set on Alternaria brassicae and in the data set on Botrytis cinerea [4] was 90 to 100% throughout. The inhibition at 20 ppm (in the data set with Alternaria alternata; in data set [3]) was 90 to 100% throughout.
In data set [1], `COc1cc(OC)nc(Oc2cnc3ccccc3c2C(=O)NCC(F)(F)c2ccc(C)cc2C)n1` [I-187] returned a chromatographic logP of 3.74. For the same compound, the figures for the inhibition at 20 ppm in the data set on Alternaria alternata and in the data set with Pyrenophora teres were 70 to 79% and 90 to 100%, respectively.
`O=C(NCC(F)(F)c1cc(Cl)sc1Cl)c1c(Oc2cccc(C(F)(F)F)c2)nnc2ccccc12` [I-199] displayed a chromatographic logP in data set [1] of 4.68. The inhibition at 20 ppm is 90 to 100% in the data set with Pyrenophora teres and 80 to 89% in the data set with Botrytis cinerea [2].
On to `Cc1ccc2c(c1)[C@@H](NC(=O)c1c(Oc3cccc(C(F)(F)F)c3)nnc3ccccc13)CC(C)(C)O2` (racemic) [I-173], for which the chromatographic logP in data set [1] was determined as 4.44. Besides, the inhibition at 20 ppm in the data set with Pyrenophora teres and in the data set on Botrytis cinerea [2] was 90 to 100% each time.
In turn, `O=C(NCC(F)(F)c1ccc(Cl)cc1)c1c(Oc2cccc(C(F)(F)F)c2)cnc2ccccc12` [I-037] showed a chromatographic logP in data set [1] of 4.23. Further, the pest or weed control at 500 ppm in the data set on Botrytis cinerea [4] is 80 to 89%. The inhibition at 20 ppm (in data set [3]; with Botrytis cinerea [2]) was 90 to 100% each time.
In turn, `O=C(N[C@H]1CCOc2ccc(F)cc21)c1c(Oc2cccc(C(F)(F)F)c2)nnc2ccccc12` (racemic) [I-165] displayed a chromatographic logP in data set [1] of 3.69. The inhibition at 20 ppm in the data set on Pyrenophora teres was 90 to 100%.
As to `O=C(NCCOc1ccc(C(F)(F)F)cc1Cl)c1c(Oc2cccc(C(F)(F)F)c2)nnc2ccccc12` [I-203], the chromatographic logP in data set [1] was 4.33. The inhibition at 20 ppm with Pyrenophora teres lay within 90 to 100%; with Botrytis cinerea [2], 70 to 79%.
As to `O=C(NCCc1cccc2[nH]ccc12)c1c(Oc2cccc(C(F)(F)F)c2)nnc2ccccc12` [I-161], the inhibition at 20 ppm with Pyrenophora teres and in the data set on Botrytis cinerea [2] was 90 to 100% each time.
As for `C[C@H](NC(=O)c1c(Oc2cccc(Cl)c2)nnc2ccccc12)c1cccc(C(F)(F)F)c1` (racemic) [I-016], the chromatographic logP in data set [1] turned out to be 3.9. The pest or weed control at 500 ppm with Alternaria brassicae and with Botrytis cinerea [4] was 90 to 100% in each case. The inhibition at 20 ppm (in the data set with Alternaria alternata; in data set [3]) was 80 to 89% each time.
`Cc1cc(C)n(CCNC(=O)c2c(Oc3cccc(C(F)(F)F)c3)nnc3ccccc23)n1` [I-240] returned a chromatographic logP in data set [1] of 2.78. Moreover, the figures for the inhibition at 20 ppm in the data set on Pyrenophora teres and in the data set on Botrytis cinerea [2] were 90 to 100% and 80 to 89%, respectively.
The like results for `O=C(NCCc1ccc2[nH]ccc2c1)c1c(Oc2cccc(C(F)(F)F)c2)nnc2ccccc12` [I-249] were, in that order, 3.3, 90 to 100% and 90 to 100%.
